In brackets after ≈: the same amount, converted by molar mass. Several values for one entry are separate records, joined by “and”; a condition that tells them apart may be missing. Equal entries are not always repeated.
Key:
C. albicans (ATCC 10231) [1] = assay: Microdilution MIC90, strain A; type: cell-based; details: for MIC90: 24 h, yeast, 24 h at 37 °C, triplicate
C. albicans (ATCC 10231) [2] = assay: Membrane permeabilization assay; type: cell-based; details: 8b, 8c at 1 × MIC, 2 × MIC, 4 × MIC (0.5, 1, 2 μg/mL); AMB 1 μg/mL; 3 h at 28 °C
[3] = system: Asp. flavus (ATCC 204304); assay: Microdilution MIC90, strain G; type: cell-based, Aspergillus flavus; details: filamentous fungi, 48 h at 37 °C, triplicate
T. rubrum (PTCC 5143) = assay: Microdilution MIC90, strain K; type: cell-based, Trichophyton rubrum; details: filamentous fungi, 48 h at 37 °C, triplicate
C. krusei (ATCC 6258) = assay: Microdilution MIC90, strain B; type: cell-based; details: for MIC90: 24 h, yeast, 24 h at 37 °C, triplicate
[4] = system: FLC-resistant clinical Candida isolate R5 (C. albicans); assay: PMIC90, FLC-resistant isolate R5; type: cell-based; details: strain R5, planktonic
C. glabrata (ATCC 90030) = assay: Microdilution MIC90, strain C; type: cell-based; details: yeast, 24 h at 37 °C, triplicate
[5] = system: FLC-resistant clinical C. albicans isolate (R1) biofilm; assay: Antibiofilm MTT reduction assay, strain R1; type: cell-based; details: triplicate
[6] = system: Asp. nidulans (PTCC 5014); assay: Microdilution MIC90, strain F; type: cell-based, Aspergillus nidulans; details: filamentous fungi, 48 h at 37 °C, triplicate
C. albicans (ATCC 10231) [7] = assay: Murine model of systemic candidiasis; type: in vivo; details: neutropenic mice (n = 5), 15 mg/kg oral gavage, left kidney tissue
Asp. niger (PTCC 5154) = assay: Microdilution MIC90, strain I; type: cell-based, Aspergillus niger; details: Aspergillus niger, PTCC5154, 48 h, filamentous fungi, 48 h at 37 °C, triplicate
Asp. terreus (PTCC 5023) = assay: Microdilution MIC90, strain J; type: cell-based, Aspergillus terreus; details: Aspergillus terreus, PTCC5023, 48 h, filamentous fungi, 48 h at 37 °C, triplicate
C. albicans (ATCC 10231) [8] = assay: Time-kill assay; type: cell-based; details: 24 h period
[9] = system: human red blood cells (hRBCs); assay: Hemolysis assay; type: cell-based; details: 100 μg/mL, 2 h at 37 °C
[10] = system: FLC-resistant clinical Candida isolate R7 (C. glabrata); assay: PMIC90, FLC-resistant isolate R7; type: cell-based; details: strain R7, planktonic
HDF normal cells = assay: MTT cytotoxicity assay, HDF; type: cell-based, human; details: HDF normal cell line, up to 100 μg/mL, 48 h
A-431 = assay: MTT cytotoxicity assay, A-431; type: cell-based, human; details: 48 h, MTT
[11] = system: C. tropicalis (PTCC 5028); assay: Microdilution MIC90, strain E; type: cell-based; details: 24 h
[12] = system: Asp. fumigatus (PTCC 5009); assay: Microdilution MIC90, strain H; type: cell-based; details: Aspergillus fumigatus, PTCC5009, 48 h, filamentous fungi, 48 h at 37 °C, triplicate
[13] = system: T. mentagrophytes (PTCC 5054); assay: Microdilution MIC90, strain M; type: cell-based; details: Trichophyton mentagrophytes, PTCC5054, 48 h
M. canis (PTCC 5069) = assay: Microdilution MIC90, strain O; type: cell-based; details: Microsporum canis, PTCC5069, 48 h
[14] = system: FLC-resistant clinical Candida isolate R4 (C. albicans); assay: PMIC90, FLC-resistant isolate R4; type: cell-based; details: strain R4, planktonic
[15] = system: T. schoenleinii (PTCC 5221); assay: Microdilution MIC90, strain N; type: cell-based; details: Trichophyton schoenleinii, PTCC5221, 48 h
[16] = system: FLC-resistant clinical Candida isolates (R1–R7); assay: PMIC, seven FLC-resistant clinical Candida isolates; type: cell-based; details: read-out: MIC (growth inhibition concentrations)
[17] = system: FLC-resistant clinical Candida isolate R3 (C. albicans); assay: PMIC90, FLC-resistant isolate R3; type: cell-based; details: strain R3, planktonic
[18] = system: FLC-resistant clinical Candida isolate R6 (C. albicans); assay: PMIC90, FLC-resistant isolate R6; type: cell-based; details: strain R6, planktonic
[19] = system: FLC-resistant clinical Candida isolate R2 (C. albicans); assay: PMIC90, FLC-resistant isolate R2; type: cell-based; details: strain R2, planktonic
[20] = system: FLC-resistant clinical Candida isolate R1 (C. albicans); assay: PMIC90, FLC-resistant isolate R1; type: cell-based; details: strain R1, planktonic
PANC-1 = assay: MTT cytotoxicity assay, PANC-1; type: cell-based, human; details: 48 h
[21] = system: FLC-resistant clinical C. albicans isolate (R2) biofilm; assay: Antibiofilm MTT reduction assay, strain R2; type: cell-based; details: triplicate
[22] = system: C. parapsilosis (ATCC 22019); assay: Microdilution MIC90, strain D; type: cell-based; details: 24 h
[23] = system: Microsporum gypseum (PTCC 5070); assay: Microdilution MIC90, strain L; type: cell-based; details: filamentous fungi, 48 h at 37 °C, triplicate
[24] = Aspergillus flavus, ATCC204304, 48 h
[25] = Trichophyton rubrum, PTCC5143, 48 h
[26] = Aspergillus nidulans, PTCC5014, 48 h

C[C@@H]1[C@H](O)[C@@H](C)/C=C/C=C/C=C/C=C/C=C/C=C/C=C/[C@H](O[C@@H]2O[C@H](C)[C@@H](O)[C@H](N)[C@@H]2O)C[C@@H]2O[C@](O)(C[C@@H](O)C[C@@H](O)[C@H](O)CC[C@@H](O)C[C@@H](O)CC(=O)O[C@H]1C)C[C@H](O)[C@H]2C(=O)O [AMB, amphotericin B, reference compound]
MIC (C. albicans (ATCC 10231) [1]; Candida albicans, ATCC10231): 1 µg/mL (≈ 1.08 µM)
cellular uptake of the PI dye (C. albicans (ATCC 10231) [2]): increased the PI dye uptake

O=C(Nc1ccc(F)cc1)Nc1nnc(SCC(O)(Cn2cncn2)c2ccc(F)cc2F)s1 (centres unmarked) [Compound 8c, 1-(5-((2-(2,4-Difluorophenyl)-2-hydroxy-3-(1H-1,2,4-triazol-1-yl)propyl)thio)-1,3,4-thiadiazol-2-yl)-3-(4-fluorophenyl)urea]
MIC90 [3, 24]: 16 µg/mL (≈ 31.5 µM)
MIC90 (T. rubrum (PTCC 5143); [25]): 4 µg/mL (≈ 7.88 µM)
MIC90 (C. krusei (ATCC 6258)): 0.5 µg/mL (≈ 0.985 µM)
fold greater potency than that of FLC (C. krusei (ATCC 6258); from MIC values): 32 fold
PMIC90 [4]: 2 µg/mL
MIC90 (C. glabrata (ATCC 90030); 24 h): 0.5 µg/mL (≈ 0.985 µM)
MIC90 (C. albicans (ATCC 10231) [1]; strain A): 0.5 µg/mL (≈ 0.985 µM)
fold greater potency than that of FLC (C. albicans (ATCC 10231) [1]; strain A, from MIC values): 32 fold
SMIC90 (sessile minimum inhibitory concentration that reduced the metabolic activity of biofilms by 90%) [5]: 1 µg/mL
MIC90 [6, 26]: 16 µg/mL (≈ 31.5 µM)
kidney fungal burden, CFU/g (mean ± SD) (C. albicans (ATCC 10231) [7]): 438 CFU/g and 438 ± 54.8 ^b CFU/g
MIC90 (Asp. niger (PTCC 5154)): 0.5 µg/mL (≈ 0.985 µM)
MIC90 (Asp. terreus (PTCC 5023)): 0.5 µg/mL (≈ 0.985 µM)
time-kill effect at 4 × MIC (C. albicans (ATCC 10231) [8]; at 4 × MIC (2 μg/mL for 8b, 8c; 64 μg/mL for FLC)): high fungicidal effect
time-kill effect at MIC (C. albicans (ATCC 10231) [8]; at MIC (0.5 μg/mL)): fungistatic effect
hemolysis (in words) [9]: limited hemolysis
PMIC90 [10]: 2 µg/mL
toxicity (in words) (HDF normal cells): none of the active compounds displayed toxicity
toxicity (in words) (A-431; A-431, 100 μg/mL): some toxicity levels
toxicity (in words) (A-431; A-431, up to 60 μg/mL): no toxicity
MIC90 [11]: 0.5 µg/mL (≈ 0.985 µM)
MIC90 [12]: 0.5 µg/mL (≈ 0.985 µM)
MIC90 [13]: 2 µg/mL (≈ 3.94 µM)
MIC90 (M. canis (PTCC 5069)): 16 µg/mL (≈ 31.5 µM)
PMIC90 [14]: 2 µg/mL
MIC90 [15]: 16 µg/mL (≈ 31.5 µM)
MIC [16]: 0.25 to 2 µg/mL (≈ 0.493 to 3.94 µM)
PMIC90 [17]: 2 µg/mL
PMIC90 [18]: 2 µg/mL
cellular uptake of the PI dye (C. albicans (ATCC 10231) [2]): none of our compounds 8b and 8c (at 1 × MIC, 2 × MIC, or 4 × MIC) induced the cellular uptake of the PI dye
PMIC90 [19]: 1 µg/mL
PMIC90 [20]: 0.5 µg/mL
cell survival (PANC-1; PANC-1, 100 μg/mL): > 40%
toxicity (in words) (PANC-1; PANC-1, at 30 and 60 μg/mL): no toxicity
SMIC90 (sessile minimum inhibitory concentration that reduced the metabolic activity of biofilms by 90%) [21]: 1 µg/mL
MIC90 [22]: 2 µg/mL (≈ 3.94 µM)

O=C(Nc1cccc(F)c1)Nc1nnc(SCC(O)(Cn2cncn2)c2ccc(F)cc2F)s1 (centres unmarked) [Compound 8g, 1-(5-((2-(2,4-Difluorophenyl)-2-hydroxy-3-(1H-1,2,4-triazol-1-yl)propyl)thio)-1,3,4-thiadiazol-2-yl)-3-(3-fluorophenyl)urea]
MIC90 [3, 24]: 2 to 4 µg/mL (≈ 3.94 to 7.88 µM)
MIC90 [3]: 4 μg·mL^–1
MIC90 (T. rubrum (PTCC 5143); [25]): 4 µg/mL (≈ 7.88 µM)
MIC90 (C. krusei (ATCC 6258)): 2 µg/mL (≈ 3.94 µM)
MIC90 (C. glabrata (ATCC 90030); 24 h): 1 to 16 µg/mL (≈ 1.97 to 31.5 µM)
MIC90 (C. glabrata (ATCC 90030)): 1 μg·mL^–1
MIC90 (C. albicans (ATCC 10231) [1]; strain A): 2 µg/mL (≈ 3.94 µM)
MIC90 [6, 26]: 8 µg/mL (≈ 15.8 µM)
MIC90 (Asp. niger (PTCC 5154)): 16 µg/mL (≈ 31.5 µM)
MIC90 (Asp. terreus (PTCC 5023)): 32 µg/mL (≈ 63.1 µM)
MIC90 [23]: 4 μg·mL^–1
MIC90 [11]: 16 µg/mL (≈ 31.5 µM)
MIC90 [12]: 16 µg/mL (≈ 31.5 µM)
MIC90 [13]: 16 µg/mL (≈ 31.5 µM)
MIC90 (M. canis (PTCC 5069)): 8 µg/mL (≈ 15.8 µM)
MIC90 [15]: 8 µg/mL (≈ 15.8 µM)
MIC90 [22]: 0.5 µg/mL (≈ 0.985 µM)

O=C(Nc1ccccc1)Nc1nnc(SCC(O)(Cn2cncn2)c2ccc(F)cc2F)s1 (centres unmarked) [Compound 8o, 1-(5-((2-(2,4-Difluorophenyl)-2-hydroxy-3-(1H-1,2,4-triazol-1-yl)propyl)thio)-1,3,4-thiadiazol-2-yl)-3-phenylurea]
MIC90 [3, 24]: 8 µg/mL (≈ 16.3 µM)
MIC90 (T. rubrum (PTCC 5143); [25]): 2 to 4 µg/mL (≈ 4.09 to 8.17 µM)
MIC90 (T. rubrum (PTCC 5143)): 4 μg·mL^–1
MIC90 (C. krusei (ATCC 6258)): 32 µg/mL (≈ 65.4 µM)
MIC90 (C. glabrata (ATCC 90030); 24 h): 32 µg/mL (≈ 65.4 µM)
MIC90 [6, 26]: 2 to 4 µg/mL (≈ 4.09 to 8.17 µM)
MIC90 [6]: 2 μg·mL^–1
MIC90 (Asp. niger (PTCC 5154)): 32 µg/mL (≈ 65.4 µM)
MIC90 (Asp. terreus (PTCC 5023)): 8 µg/mL (≈ 16.3 µM)
MIC90 [23]: 4 μg·mL^–1
MIC90 [11]: 16 µg/mL (≈ 32.7 µM)
MIC90 [12]: 32 µg/mL (≈ 65.4 µM)
MIC90 [13]: 16 µg/mL (≈ 32.7 µM)
MIC90 (M. canis (PTCC 5069)): 16 µg/mL (≈ 32.7 µM)
MIC90 [15]: 16 µg/mL (≈ 32.7 µM)
MIC90 [22]: 8 µg/mL (≈ 16.3 µM)
